From publication PMC9679998 (ACS Chemical Biology, 2022)

What was measured:
[1] = molecular target: T1, adenosine A1 receptor (A1AR) (Homo sapiens, UniProt P30542); assay: [3H]DPCPX radioligand displacement on CHO-hA1AR membranes with […] h or […] h preincubation (apparent pKi […] and […]), wash-out, gel labeling, pull-down LC-MS/MS; type: binding
T1 construct: gene ADORA1
T1 sequence (P30542 1-326): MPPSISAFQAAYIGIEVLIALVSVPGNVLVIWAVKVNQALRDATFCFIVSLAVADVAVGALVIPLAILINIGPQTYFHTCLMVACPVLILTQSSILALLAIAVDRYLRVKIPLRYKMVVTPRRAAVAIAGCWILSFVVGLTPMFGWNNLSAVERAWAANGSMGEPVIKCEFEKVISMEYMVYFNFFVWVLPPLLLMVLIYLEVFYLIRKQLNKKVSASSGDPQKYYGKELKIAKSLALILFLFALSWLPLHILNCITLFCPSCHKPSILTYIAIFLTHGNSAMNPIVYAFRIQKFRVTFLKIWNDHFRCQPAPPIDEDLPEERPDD

[2] = molecular target: T1, adenosine A1 receptor (A1AR); assay: single-point [3H]DPCPX radioligand displacement at […] ([…])

Row | SMILES | Ki [1] | % displacement at 1 μM [2]
1 | C#CCN(CCCSc1nc(N)c(C#N)c(-c2ccc3c(c2)OCO3)c1C#N)C(=O)c1ccc(S(=O)(=O)F)cc1 [compound 4, LUF7909] | 16 nM | –
2 | C#CCNc1nc(SCCCNC(=O)c2ccc(S(=O)(=O)F)cc2)c(C#N)c(-c2ccc3c(c2)OCO3)c1C#N [compound 1, 1] | – | ~ 70
